From patent US7722863B2, “Use of granzyme b as an hsp70/hsp70 peptide dependent inducer of apoptosis in tumor cells” (Multimmune GmbH, priority 2002, dated 2010)

Columns and labels:
[1] = tested on: Hsp70 membrane-positive Colo+ cells; assay: Annexin V-FITC apoptosis assay (flow cytometry); type: cell-based, human; conditions: granzyme B 6 ng/ml
Experimental: (§1) Exponentially growing tumor cells (day 1 after cell passage) were used for granzyme B, camptothecin treatment and as targets in cytotoxicity assays.
(§2) Stock solutions of camptothecin (4 mg/ml, Sigma, Munich, Germany) were diluted in DMSO and stored at 4° C. in the dark. Granzyme B (6 ng/ml, Hölzel Diagnostics, Cologne, Germany) solutions were freshly prepared directly before usage. Exponentially growing cells (0.5-1.5×10^6/ml) were incubated either with camptothecin at a final concentration of 4 μg/ml or with purified, enzymatically active granzyme B (10 ng/ml, 1 μg/ml, 2 μg/ml; 4 μg/ml) (Shi et. al. (2000) Methods in Enzymology 322, 125) for 10 min, and 30 min either at 4° C. or at 37° C. After washing in RPMI-1640 medium binding and uptake was determined in nonpermeabilized and permeabilized tumor cells by flow cytometry and fluorescence microscopy on a Axioscop 25 scanning microscope (Zeiss, Jena, Germany) equipped with a 40× objective and standard filters. Images were treated by multiplicative shading correction using the software Axiovison (Zeiss Vison, Jena, Germany). Granzyme B was visualized in red by using the HC2-PE antibody.
(§3) Apoptotic Cell Death was Determined after Incubation of Tumor Cells with 6 ng/ml Granzyme B for 4 h, 12 h, and 24 h at 37° C. and Washing in RPMI-1640 Medium by Different Apoptosis Assays, as Described Below. Apoptosis Assays
(§4) Annexin V-FITC staining: Briefly, cells were washed twice in Hepes buffer containing 5 mM CaCl2 and incubated with Annexin V-FITC (Roche) for 10 min at room temperature. Annexin V-FITC positively stained cells were measured on a FACSCalibur flow cytometer (Becton Dickinson, Heidelberg, Germany).
(§5) The preceding findings posed the question whether purified granzyme B can induce apoptosis of tumor cells that present Hsp70 on their cell surface. […] As a positive control for apoptosis all cell types were incubated with the topoisomerase inhibitor camptothecin at a concentration of 4 μg/ml. Apoptosis was determined by Annexin V-FITC staining measured by FACS (FACSCalibur, Becton Dickinson, Heidelberg, Germany), DAPI staining and mitochondrial cytochrome c release. Apoptosis was not detected in CX+ and CX− cells incubated with camptothecin (cam) or granzyme B (grB) for 4 h incubation (FIG. 3A). […] It appeared that the colon carcinoma sublines CX+/CX− are better protected towards a camptothecin-mediated cell death as compared to the pancreas carcinoma sublines Colo+/Colo−.

[2] = tested on: Hsp70 membrane-positive CX+ cells; assay: Annexin V-FITC apoptosis assay (flow cytometry); type: cell-based, human; conditions: for apoptosis in CX+ cells / amount of Annexin V-FITC positively stained CX+ cells / fold increase of Annexin V-FITC positively stained CX+ cells: camptothecin 4 μg/ml or granzyme B 6 ng/ml; for fold increase of Annexin V-FITC positively stained CX+ cells: versus untreated
Experimental: as §1, §2, §3, §4, §5

[3] = tested on: Hsp70 membrane-negative Colo− cells; assay: Annexin V-FITC apoptosis assay (flow cytometry); type: cell-based, human; conditions: 12 h and 24 h; camptothecin 4 μg/ml or granzyme B 6 ng/ml
Experimental: as §1, §2, §3, §4, §5

[4] = tested on: Hsp70 membrane-negative CX− cells; assay: Annexin V-FITC apoptosis assay (flow cytometry); type: cell-based, human; conditions: for apoptosis in CX− cells: camptothecin 4 μg/ml or granzyme B 6 ng/ml
Experimental: as §1, §2, §3, §4, §5

[5] = tested on: Hsp70 membrane-positive leukemic cell line K562; assay: Annexin V-FITC apoptosis assay (flow cytometry); type: cell-based; conditions: granzyme B
Experimental: as §1, §4
Similarly, a 1.3-fold and a 2.4-fold increase in the amount of Annexin V-FITC positively stained Colo+ cells were observed after 12 h and 24 h, respectively. […] A comparative Annexin V-FITC staining pattern of CX+ and CX− cells treated with granzyme B for 24 h, is illustrated in FIG. 3B. […] The amount of Annexin V-FITC positively stained K562 cells increased from 8.7% up to 16% (1.8-fold).

[6] = tested on: Hsp70 membrane-positive Colo+ tumor subline; assay: Cell surface binding and uptake of granzyme B (fluorescence microscopy, flow cytometry); type: cell-based, human
Experimental: (§6) Cells (0.5×10^6) were fixed in paraformaldehyde (1% PFA in PBS) for 10 min, and permeabilized in PBS containing BSA (0.5%), NaN3 (0.1%), and saponin (0.1%). Then permeabilized cells were incubated either with the granzyme B-phycoerythrin conjugated monoclonal antibody HC2-PE (IgG1; Hölzel Diagnosbka, Cologne, Germany) with an isotype-matched IgG1 control antibody, at 4° C. for 1 h, in the dark. Following washing cells were analysed on a FACSCalibur instrument (Becton Dickinson, Heidelberg, Germany).
as §2
(§7) The preceding findings posed the question whether membrane-bound Hsp70 might enable specific binding and entry of granzyme B into the cytosol. […] A light microscopical analysis of untreated CX+ and Colo+ cells (control) at 4° C. versus 37° C. is shown in the upper row of each panel (FIG. 2A). The corresponding immunofluorescence microscopy of the cells at 4° C. and 37° C. is illustrated below (control). […] (data not shown). […] (FIG. 2B, upper graph). […] However, even at the highest concentration of 4 μg/ml, granzyme B was internalized much more pronounced by Hsp70 membrane-positive as compared to Hsp70-negative tumor cells (CX−/Colo−). Potential ion channels formed by Hsp70 may play a role in the mechansim of selective granzyme B uptake in Hsp70 membrane-positive tumor cells. Indeed, a particular ion conductance pathway was observed after incorporation of vesicles derived from purified phospholipids of Hsp70 membrane-positive (CX+) tumor sublines. This was not seen in vesicles obtained from Hsp70 membrane-negative (CX−) tumor cells (data not shown).

[7] = tested on: Hsp70 membrane-negative CX− tumor subline; assay: as above; type: cell-based, human; conditions: data not shown
Experimental: as §6, §2, §7

[8] = tested on: Hsp70 membrane-negative Colo− tumor subline; assay: as above; type: cell-based, human; conditions: data not shown
Experimental: as §6, §2, §7

CX− tumor cells = assay: DAPI staining of nuclear DNA fragmentation; type: cell-based, human; conditions: 24 h, camptothecin 4 μg/ml or granzyme B 6 ng/ml
Experimental: (§8) DAPI-staining: Methanol/aceton fixed cells (0.1×10^6 cells/100 μl) were incubated with 0.5 μg/μl 4,6-diamino-2-phenylindole (DAPI) in PBS/glycerol (3:1), for 15 min in the dark. Following washing in PBS the cells were mounted with Fluorescent Mounting Medium (Dako, Glostrup, Denmark) and than analysed for fluorescence using a Zeiss model Axioscop 2 scanning microscope (Zeiss Jena, Germany) equipped with a 40× objective and standard filters. Apoptosis was visualized with DAPI-staining in 50 cells, each. Images were treated by multiplicative shading correction using software Axiovision (Zeiss Vision Jena, Germany).

Colo+ tumor cells = assay: DAPI staining of nuclear DNA fragmentation; type: cell-based, human; conditions: 24 h, camptothecin 4 μg/ml or granzyme B 6 ng/ml
Experimental: as §8

## granzyme B
[1]; 12 h
  fold increase in the amount of Annexin V-FITC positively stained Colo+ cells: 1.3 fold
[1]; 24 h
  fold increase in the amount of Annexin V-FITC positively stained Colo+ cells: 2.4 fold
[2]; 4 h incubation
  apoptosis in CX+ cells: not detected
[2]; 12 h, untreated 16.6%
  amount of Annexin V-FITC positively stained CX+ cells: 20.9%
[2]; 12 h
  fold increase of Annexin V-FITC positively stained CX+ cells: 1.3 fold
[2]; 12 h and 24 h
  apoptosis in CX+ cells: apoptosis was observed
[2]; 24 h, untreated 18%
  amount of Annexin V-FITC positively stained CX+ cells: 30.2%
[2]; 24 h
  fold increase of Annexin V-FITC positively stained CX+ cells: 1.8 fold
[2]; 24 h granzyme B, representative analysis FIG. 3B
  fold increase of Annexin V-FITC positively and PI negatively stained CX+ cells: 1.7 fold
[2]; 24 h granzyme B, representative analysis FIG. 3B, untreated control 18%
  amount of Annexin V-FITC positively and propidium iodide (PI) negatively stained CX+ cells: 30%
[3]
  apoptosis in Colo− cells: neither a 12 h nor a 24 h treatment with granzyme B induces apoptosis
[4]; 4 h incubation
  apoptosis in CX− cells: not detected
[4]; 12 h and 24 h
  apoptosis in CX− cells: neither a 12 h nor a 24 h treatment with granzyme B induces apoptosis
[4]; 24 h granzyme B, FIG. 3B
  amount of apoptotic CX− cells before and after treatment: remained unaltered
[5]; untreated 8.7%, data not shown
  amount of Annexin V-FITC positively stained K562 cells: 16%
[5]; versus untreated
  fold increase of Annexin V-FITC positively stained K562 cells: 1.8 fold
[6]; 1 μg/ml granzyme B, 30 min, 37° C.
  granzyme B uptake, flow cytometry of permeabilized cells: faint shift of the granzyme B peak to the right
[6]; 2 μg/ml and 4 μg/ml granzyme B
  granzyme B uptake, flow cytometry of permeabilized cells: dose-dependent increase in granzyme B uptake
[6]; 15 min at 4° C., granzyme B 2 μg/ml
  granzyme B cell surface binding (immunofluorescence): typical cell surface staining, was detected
[6]; temperature shift 4° C. to 37° C., 30 min
  granzyme B uptake, cytoplasmic staining (immunofluorescence): resulted in uptake of granzyme B
[7]; 4° C.
  granzyme B cell surface binding (immunofluorescence): either exhibited any granzyme B cell surface binding at 4 °C
[7]; 37° C.
  granzyme B uptake (immunofluorescence): nor uptake at 37 °C
[8]; 4° C.
  granzyme B cell surface binding (immunofluorescence): either exhibited any granzyme B cell surface binding at 4 °C
[8]; 37° C.
  granzyme B uptake (immunofluorescence): nor uptake at 37 °C
CX− tumor cells
  nuclear DNA fragmentation (DAPI): no DNA fragmentation was observed
Colo+ tumor cells
  nuclear DNA fragmentation (DAPI): DNA fragmentation was detected
